Assay results: patent publication US7304092B1, “Compounds and methods for treating tumors, cancer and hyperproliferative diseases” (Yale University, priority 2002, dated 2007)
Entries after “also recorded” stand apart in the source; their conditions may differ.

Experiments:
[1] = system: 32DtetP210Bcr-Abl cells (32D-bcr-abl); assay: Low cell density cell proliferation / cell death assay, bcr-abl dependent cells; type: cell-based, murine; conditions: for activity (death of 32D-bcr-abl cells) / selectivity (32D-bcr-abl over control cells): result in words; for activity (death of 32D-bcr-abl cells): structure-activity comparison; for selectivity (32D-bcr-abl over control cells): versus control 32D cell line; for activity / selectivity: in words; for inhibition of the 32DtetP210bcrabl cell line: 1 micromolar, FIG. 13, in words
Experimental: (§1) The acetylenes were prepared by deprotonation of a propiolate (either methyl or tert-butyl) with n-butyllithium and subsequent reaction with an isocyanate (FIG. 4). Modifications may be readily made following the aforementioned schemes. The furan and acetylene libraries were both tested for activity in a cell-based assay where the death of engineered murine myeloid cells (32D-bcr-abl), the survival of which depends on the activity of bcr-abl tyrosine kinase, was sought.
(§2) The biological activity of these compounds was evaluated in two ways, a murine cell line differential proliferation assay and a NCI 60 human carcinoma cell-line growth inhibition and cell death assay. The murine cell death assays were performed using a p210bcrabl transformed 32D murine cell line. […] The NCl assay was performed in the Developmental Therapeutics Program at the National Cancer Institute. This assay measures the inhibition of cell growth and cell death from sixty different human carcinomas.
(§3) The furan and acetylene libraries were both tested for activity in a cell-based assay where the death of engineered murine myeloid cells (32D-bcr-abl), the survival of which is depends on the activity of bcr-abl tyrosine kinase, was sought.
(§4) Low cell density high throughput cell proliferation assay Between 50 and 100 32D and 32DtetP210Bcr-Abl cells in 100 microliters of medium without serum were exposed to the test compound for 15 minutes. An equal volume of 20% serum supplemented tissue culture medium was then added and the cells were inoculated in single well in 32 wells of a 96 well plate. The endpoint of the assay was the fraction of the 32 wells in which a cell pellet was seen to develop which was filled with live cells. This assay is subject to automated screening by a plate reader for the cell pellet. We used this high throughput assay to screen for compounds that suppress the growth of the 32DtetP210Bcr-Abl cell line in the absence of IL-3, but allow the growth of the 32D cell line in the presence of IL-3. Various concentrations of each compound were tested.

32D cells = assay: Low cell density cell proliferation assay, control cell line; type: cell-based, murine; conditions: for control cells surviving: 100 nM
Experimental: as §1
as §2, with “carcinomas. Both the acetylene and furan structural cores represent novel chemical entities with no prior reports of biological activity. […] At present, the use of these compounds is to be preferred in the treatment of tumors and cancer.” for “carcinomas.”
as §3, §4

[2] = system: 60 human carcinoma cell lines; assay: NCI 60 human carcinoma cell-line growth inhibition and cell death assay, whole panel; type: cell-based
Experimental: as §2, with “carcinomas. Both the acetylene and furan structural cores represent novel chemical entities with no prior reports of biological activity. […] At present, the use of these compounds is to be preferred in the treatment of tumors and cancer.” for “carcinomas.”
(§5) In order to obtain additional information about the behavior of our compounds in cancerous cells, 18 compounds were submitted to and accepted by the NCl for testing on 60 human carcinoma cell lines as set forth in the examples section. This would confirm the activity seen in our cell-based assay and maybe give an insight into the mechanism of action and biological target of the acetylene/furan compounds. […] As a result, K1P was singled out by the NCl for further testing: MTD (Maximum Tolerated Dose) and murine hollow fiber in vivo assay. These are being carried out at the present time, along with testing of furans AN7A and AN7B in the 60 human cancer cell lines. […]

[3] = system: carcinoma and model carcinoma cell lines; assay: Summary of activity in the cell line assays; type: cell-based; conditions: in words
Experimental: as §2, with “carcinomas. Both the acetylene and furan structural cores represent novel chemical entities with no prior reports of biological activity. […] At present, the use of these compounds is to be preferred in the treatment of tumors and cancer.” for “carcinomas.”

PKCbII = molecular target: T1, PKCbII (Homo sapiens, UniProt P05771); assay: Cell free kinase inhibition assay; type: biochemical
T1 construct: purchased Upstate Biotechnologies, Lake Placid, N.Y
T1 sequence (P05771 1-673 isoform P05771-2): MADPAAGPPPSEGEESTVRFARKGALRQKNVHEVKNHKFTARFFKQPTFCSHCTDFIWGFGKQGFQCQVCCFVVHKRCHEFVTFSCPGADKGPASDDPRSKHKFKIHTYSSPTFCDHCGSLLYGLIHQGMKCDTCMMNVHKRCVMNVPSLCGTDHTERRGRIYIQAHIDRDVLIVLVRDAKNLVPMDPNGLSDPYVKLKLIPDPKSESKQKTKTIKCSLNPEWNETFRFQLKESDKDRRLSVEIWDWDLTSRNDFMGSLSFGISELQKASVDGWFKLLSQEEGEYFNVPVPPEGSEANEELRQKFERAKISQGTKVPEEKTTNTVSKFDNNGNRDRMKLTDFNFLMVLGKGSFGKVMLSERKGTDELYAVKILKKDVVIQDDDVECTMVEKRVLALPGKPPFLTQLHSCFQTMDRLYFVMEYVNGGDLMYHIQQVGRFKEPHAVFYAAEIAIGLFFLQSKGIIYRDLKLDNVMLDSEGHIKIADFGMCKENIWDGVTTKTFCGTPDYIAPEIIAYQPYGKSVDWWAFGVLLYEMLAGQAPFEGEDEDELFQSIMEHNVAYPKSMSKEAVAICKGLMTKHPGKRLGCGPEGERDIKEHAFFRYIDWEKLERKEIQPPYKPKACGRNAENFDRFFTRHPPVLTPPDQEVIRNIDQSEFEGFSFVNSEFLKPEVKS
Experimental: (§6) Cell Free Kinase Inhibition Assay. A panel of 60 kinases (Upstate Biotechnologies, Lake Placid, N.Y.) were analyzed in in vitro cell free kinase assays.

Lyn = molecular target: T2, Lyn (Homo sapiens, UniProt P07948); assay: Cell free kinase inhibition assay; type: biochemical
T2 construct: purchased Upstate Biotechnologies, Lake Placid, N.Y
T2 sequence (P07948 whole entry, species assumed): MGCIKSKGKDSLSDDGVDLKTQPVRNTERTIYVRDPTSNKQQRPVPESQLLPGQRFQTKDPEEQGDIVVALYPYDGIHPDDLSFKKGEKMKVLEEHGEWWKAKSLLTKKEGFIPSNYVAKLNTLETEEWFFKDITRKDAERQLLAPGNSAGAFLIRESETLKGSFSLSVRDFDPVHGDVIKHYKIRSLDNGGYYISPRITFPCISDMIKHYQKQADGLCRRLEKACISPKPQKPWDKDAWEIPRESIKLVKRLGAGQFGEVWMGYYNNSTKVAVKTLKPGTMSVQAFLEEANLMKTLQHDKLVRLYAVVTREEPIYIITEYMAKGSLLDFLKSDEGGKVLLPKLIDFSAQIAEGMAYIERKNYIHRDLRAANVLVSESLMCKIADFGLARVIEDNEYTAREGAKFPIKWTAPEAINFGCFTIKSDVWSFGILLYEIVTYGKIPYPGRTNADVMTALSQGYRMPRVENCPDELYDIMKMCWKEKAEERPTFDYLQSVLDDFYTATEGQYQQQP
Experimental: as §6

CDK2/cyclinA = molecular target: T3, CDK2/cyclinA (Homo sapiens, UniProt P24941); assay: Cell free kinase inhibition assay; type: biochemical
T3 construct: purchased Upstate Biotechnologies, Lake Placid, N.Y
Experimental: as §6

Fyn = molecular target: T4, Fyn (Homo sapiens, UniProt P06241); assay: Cell free kinase inhibition assay; type: biochemical
T4 construct: purchased Upstate Biotechnologies, Lake Placid, N.Y
T4 sequence (P06241 whole entry, species assumed): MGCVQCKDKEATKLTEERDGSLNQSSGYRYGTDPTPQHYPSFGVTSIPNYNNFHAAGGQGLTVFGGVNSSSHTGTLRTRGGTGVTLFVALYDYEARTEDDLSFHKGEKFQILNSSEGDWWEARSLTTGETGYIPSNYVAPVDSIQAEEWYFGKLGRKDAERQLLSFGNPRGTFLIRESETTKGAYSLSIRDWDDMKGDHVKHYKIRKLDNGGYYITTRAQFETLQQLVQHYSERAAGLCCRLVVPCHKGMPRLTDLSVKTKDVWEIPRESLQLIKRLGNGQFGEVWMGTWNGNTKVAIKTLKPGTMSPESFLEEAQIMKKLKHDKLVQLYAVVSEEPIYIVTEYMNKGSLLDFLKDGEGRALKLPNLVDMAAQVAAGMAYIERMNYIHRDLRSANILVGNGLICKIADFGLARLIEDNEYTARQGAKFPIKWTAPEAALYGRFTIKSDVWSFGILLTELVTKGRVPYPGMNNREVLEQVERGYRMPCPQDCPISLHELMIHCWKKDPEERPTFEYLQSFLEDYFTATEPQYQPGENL
Experimental: as §6

CaMKII = assay: Cell free kinase inhibition assay; type: biochemical
Experimental: as §6

PKCy = molecular target: T5, PKCy (Homo sapiens, UniProt P05129); assay: Cell free kinase inhibition assay; type: biochemical
T5 construct: purchased Upstate Biotechnologies, Lake Placid, N.Y
Experimental: as §6

CaMKIV = molecular target: T6, CaMKIV (Homo sapiens, UniProt Q16566); assay: Cell free kinase inhibition assay; type: biochemical
T6 construct: purchased Upstate Biotechnologies, Lake Placid, N.Y
T6 sequence (Q16566 1-473): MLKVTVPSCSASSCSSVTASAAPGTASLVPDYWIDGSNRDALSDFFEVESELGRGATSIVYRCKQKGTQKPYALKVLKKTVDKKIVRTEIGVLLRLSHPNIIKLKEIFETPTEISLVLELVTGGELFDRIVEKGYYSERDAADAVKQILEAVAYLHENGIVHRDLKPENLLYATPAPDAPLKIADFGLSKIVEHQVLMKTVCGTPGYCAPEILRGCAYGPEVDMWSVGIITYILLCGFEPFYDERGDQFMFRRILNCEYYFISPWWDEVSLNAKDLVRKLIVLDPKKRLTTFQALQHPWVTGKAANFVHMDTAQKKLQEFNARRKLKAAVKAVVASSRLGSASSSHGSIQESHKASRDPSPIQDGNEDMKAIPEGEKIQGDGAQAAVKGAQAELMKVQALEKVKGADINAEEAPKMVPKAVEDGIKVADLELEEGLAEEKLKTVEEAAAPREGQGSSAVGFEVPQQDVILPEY
Experimental: as §6

CK1 = assay: Cell free kinase inhibition assay; type: biochemical
Experimental: as §6

IKKBeta = molecular target: T7, IKKBeta (Homo sapiens, UniProt O14920); assay: Cell free kinase inhibition assay; type: biochemical
T7 construct: purchased Upstate Biotechnologies, Lake Placid, N.Y
T7 sequence (O14920 1-756): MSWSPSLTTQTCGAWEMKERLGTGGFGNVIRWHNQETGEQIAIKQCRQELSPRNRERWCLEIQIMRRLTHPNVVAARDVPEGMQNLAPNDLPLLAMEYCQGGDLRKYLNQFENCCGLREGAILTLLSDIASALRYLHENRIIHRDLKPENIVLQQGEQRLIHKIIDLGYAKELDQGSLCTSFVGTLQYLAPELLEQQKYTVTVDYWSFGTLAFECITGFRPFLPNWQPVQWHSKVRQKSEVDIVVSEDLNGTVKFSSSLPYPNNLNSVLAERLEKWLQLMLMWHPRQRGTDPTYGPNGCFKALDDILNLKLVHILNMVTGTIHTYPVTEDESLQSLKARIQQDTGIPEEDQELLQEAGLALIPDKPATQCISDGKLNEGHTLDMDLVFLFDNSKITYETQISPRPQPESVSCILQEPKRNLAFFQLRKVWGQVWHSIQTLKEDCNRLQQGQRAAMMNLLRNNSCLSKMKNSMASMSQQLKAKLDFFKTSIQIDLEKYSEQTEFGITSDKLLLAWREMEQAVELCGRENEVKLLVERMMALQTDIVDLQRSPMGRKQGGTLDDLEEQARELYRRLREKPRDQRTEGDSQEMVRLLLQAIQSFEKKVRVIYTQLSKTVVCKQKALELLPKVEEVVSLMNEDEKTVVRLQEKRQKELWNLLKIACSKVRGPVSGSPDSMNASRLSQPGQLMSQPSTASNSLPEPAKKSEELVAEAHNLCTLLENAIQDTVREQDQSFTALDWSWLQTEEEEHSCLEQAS
Experimental: as §6

leukemia cell lines = assay: NCI 60 human carcinoma cell-line growth inhibition assay, leukemia panel; type: cell-based; conditions: span over the lines
Experimental: as §2, with “carcinomas. Both the acetylene and furan structural cores represent novel chemical entities with no prior reports of biological activity. […] At present, the use of these compounds is to be preferred in the treatment of tumors and cancer.” for “carcinomas.”
as §5

renal cell lines = assay: NCI 60 human carcinoma cell-line growth inhibition assay, renal panel; type: cell-based; conditions: span over the lines
Experimental: as §2, with “carcinomas. Both the acetylene and furan structural cores represent novel chemical entities with no prior reports of biological activity. […] At present, the use of these compounds is to be preferred in the treatment of tumors and cancer.” for “carcinomas.”
as §5

`CC(C)(C)OC(=O)C#CC(=O)NC1CCCCC1` [AC1] was tested, and the leukemic cells surviving ([1]; 100 nM) was 50% and the control cells surviving (32D cells) was 100%.

In the case of `COC(=O)C#CC(=O)Nc1ccc(OC)cc1` [AC3], the “activity (death of 32D-bcr-abl cells)” value [1] is reported as “decreased activity and selectivity dramatically” and the “selectivity (32D-bcr-abl over control cells)” value [1] is reported as “decreased activity and selectivity dramatically”.

With `COC(=O)C#CC(=O)Nc1ccccc1` [AC6] the “activity (death of 32D-bcr-abl cells)” value [1] was “increased both selectivity and activity” and the “selectivity (32D-bcr-abl over control cells)” value [1] was “increased both selectivity and activity”.

For `COC(=O)C#CC(=O)Nc1c(F)cccc1F` [AC9], the “activity (death of 32D-bcr-abl cells)” value [1] was “inactive”.

For `COC(=O)C#CC(=O)Nc1c(C(C)C)cccc1C(C)C` [AC10], the “activity (death of 32D-bcr-abl cells)” value [1] was “moderate activity” and the “selectivity (32D-bcr-abl over control cells)” value [1] was “no selectivity”.

`COC(=O)C#CC1CCCCC1` [AC11] was tested, and the “activity (death of 32D-bcr-abl cells)” value [1] was “little or no activity”.

In the case of `COC(=O)C#CC(=O)NCc1ccccc1` [AC13], the “activity (death of 32D-bcr-abl cells)” value [1] is reported as “active” and the “selectivity (32D-bcr-abl over control cells)” value [1] is reported as “little selectivity”.

With `COC(=O)C#CC(=O)Nc1cccc(OC)c1` [AC15] the activity ([1]; 1 uM level) was “activity was regained” and the selectivity ([1]; 1 uM level) was “selectivity remained low”.

With `COC(=O)C#CC(=O)Nc1ccccc1OC` [AC16] the activity ([1]; 1 uM level) was “activity was regained” and the selectivity ([1]; 1 uM level) was “selectivity remained low”.

With `COC(=O)C#CC(=O)Nc1cc(OC)cc(OC)c1` [AC17] the activity ([1]; 1 uM level) was “activity was regained” and the selectivity ([1]; 1 uM level) was “selectivity remained low”.

In the case of `COC(=O)C#CC(=O)Nc1ccc2ccccc2c1` [AC19], the “concentration below which no activity was shown” value ([2]; NCI 60 cell lines) is reported as ≥ 10 µM, the “activity against carcinoma and model carcinoma cell lines” value [3] is reported as “good activity” and the activity ([1]; 100 nM) is reported as “excellent activity”. The selectivity ([1]; 100 nM) was “shows selectivity”.

With `COC(=O)C#CC(=O)Nc1ccc(-c2ccccc2)cc1` [AC21] the activity ([1]; 100 nM) was “excellent activity” and the selectivity ([1]; 100 nM) was “only AC19 shows selectivity”.

In the case of `COC(=O)C#CC(=O)Nc1ccc(Oc2ccccc2)cc1` [AC22], the “activity against carcinoma and model carcinoma cell lines” value [3] is reported as “good activity”, the activity ([1]; 10 nM) is reported as “not active” and the activity ([1]; 100 nM) is reported as “excellent activity; also recorded: very active”. For the same compound, the selectivity ([1]; 100 nM) was “not selective”, the “inhibition of the 32DtetP210bcrabl cell line” value [1] was “inhibitory” and the inhibition at 0.01 µM ([1]; Mus musculus, 10 nanomolar of each drug, 32DtetP210bcrabl cell line, read-out: inhibition of P210bcrabl dependent cell growth) was 10%. It also gave an inhibition at 10 µM (PKCbII) of 48%, an inhibition at 10 µM (Lyn) of 98% and an inhibition at 10 µM (CDK2/cyclinA) of 50%. For the same compound, the inhibition at 10 µM (Fyn) was 29%, the “% Inhibition at 10 μM” value (CaMKII) was 40% and the inhibition at 10 µM (PKCy) was 61%. The inhibition at 10 µM (CaMKIV) was 64%, the “% Inhibition at 10 μM” value (CK1) was “(37) %” and the inhibition at 10 µM (IKKBeta) was 45%. The “inhibition of the 32Dtet cell line” value (32D cells; similar concentration (1 micromolar), in words) was “inhibits” and the GI50 (leukemia cell lines) was 2.6 to 7.3 µM.

In the case of `COC(=O)C#CC(=O)NC1CCCCC1` [K1P], the “activity in the NCI cell lines” value ([2]; certain leukemia, colon cancer, melanoma, renal cancer cell lines and a breast cancer cell line, in words) is reported as “enhanced activity”, the “activity against carcinoma and model carcinoma cell lines” value [3] is reported as “good activity” and the leukemic cells surviving ([1]; 100 nM) is reported as 50%. The “inhibition of the 32DtetP210bcrabl cell line” value [1] was “inhibitory”, the GI50 (renal cell lines) was 2.5 to 2.7 µM and the inhibition at 10 µM (PKCbII) was 35%. The inhibition at 10 µM (Fyn) was 49%, the “% Inhibition at 10 μM” value (CK1) was 46% and the control cells surviving (32D cells) was 100%. It also gave a GI50 (leukemia cell lines) of 0.8 to 5 µM.

`Cc1ccc(NC(=O)c2ccc(CN3CCN(C)CC3)cc2)cc1Nc1nccc(-c2cccnc2)n1` [STI-571, reference compound] was tested, and the control cells alive (32D cells; 10 nM, in words) was “all the control cells are still alive”.
